Measurements reported in PubChem BioAssay (NCI).
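A five-concentration, 48-hour dose response in 96-well plates underlies each endpoint, interpolated linearly between surrounding concentrations. The concentration for 50% growth inhibition is given as GI50. The concentration for full growth arrest is given as TGI.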

Columns and labels:
Assay in all cases: DTP human tumour cell line panel, 48 h
[1] = tested on: 786-0 renal
[2] = tested on: A498 renal
[3] = tested on: A549 NSCLC
[4] = tested on: ACHN renal
[5] = tested on: BT-549 breast
[6] = tested on: CAKI-1 renal
[7] = tested on: CCRF-CEM leukemia
[8] = tested on: COLO 205 colon
[9] = tested on: DU-145 prostate
[10] = tested on: EKVX NSCLC
[11] = tested on: HCC-2998 colon
[12] = tested on: HCT-116 colon
[13] = tested on: HCT-15 colon
[14] = tested on: HL-60(TB) leukemia
[15] = tested on: HOP-62 NSCLC
[16] = tested on: HOP-92 NSCLC
[17] = tested on: HS 578T breast
[18] = tested on: HT29 colon
[19] = tested on: K-562 leukemia
[20] = tested on: KM12 colon
[21] = tested on: LOX IMVI melanoma
[22] = tested on: M14 melanoma
[23] = tested on: MALME-3M melanoma
[24] = tested on: MCF7 breast
[25] = tested on: MDA-MB-231 breast
[26] = tested on: MDA-MB-435
[27] = tested on: MOLT-4 leukemia
[28] = tested on: NCI-H226 lung
[29] = tested on: NCI-H23 lung
[30] = tested on: NCI-H460 lung
[31] = tested on: NCI/ADR-RES ovarian
[32] = tested on: OVCAR-3 ovarian
[33] = tested on: OVCAR-4 ovarian
[34] = tested on: OVCAR-5 ovarian
[35] = tested on: OVCAR-8 ovarian
[36] = tested on: PC-3 prostate
[37] = tested on: RPMI-8226 leukemia
[38] = tested on: RXF 393 renal
[39] = tested on: SF-268 CNS
[40] = tested on: SF-295 CNS
[41] = tested on: SF-539 CNS
[42] = tested on: SK-MEL-2 melanoma
[43] = tested on: SK-MEL-28 melanoma
[44] = tested on: SK-MEL-5 melanoma
[45] = tested on: SK-OV-3 ovarian
[46] = tested on: SN12C renal
[47] = tested on: SNB-19 CNS
[48] = tested on: SNB-75 CNS
[49] = tested on: SR leukemia
[50] = tested on: SW-620 colon
[51] = tested on: T-47D breast
[52] = tested on: TK-10 renal
[53] = tested on: U251 CNS
[54] = tested on: UACC-257 melanoma
[55] = tested on: UACC-62 melanoma

## CCC(=O)c1c(C(F)(F)F)n([O-])c2cc(N3CCNCC3)c(F)cc2[n+]1=O
[1]
  GI50: 3.86 µM
  TGI: 17.6 µM
[2]
  GI50: 1.67 µM
  TGI: 11.1 µM
[3]
  GI50: 2.58 µM
  TGI: 13.8 µM
[4]
  GI50: 1.55 µM
  TGI: 13.7 µM
[5]
  GI50: 2.84 µM
  TGI: 12.5 µM
[6]
  GI50: 3.27 µM
  TGI: 17.9 µM
[7]
  GI50: 2.05 µM
  TGI: 22.9 µM
[8]
  GI50: 0.454 µM
  TGI: 10.8 µM
[9]
  GI50: 1.61 µM
  TGI: 4.36 µM
[10]
  GI50: 2.82 µM
  TGI: 13.7 µM
[11]
  GI50: 1.4 µM
  TGI: 14.3 µM
[12]
  GI50: 1.71 µM
  TGI: 13.1 µM
[13]
  GI50: 1.76 µM
  TGI: 13.5 µM
[14]
  GI50: 1.18 µM
  TGI: 6.68 µM
[15]
  GI50: 10.2 µM
  TGI: 22.6 µM
[16]
  GI50: 2.69 µM
  TGI: 17.5 µM
[17]
  GI50: 2.74 µM
  TGI: 21.3 µM
[18]
  GI50: 2.1 µM
  TGI: 18.5 µM
[19]
  GI50: 1.65 µM
  TGI: 12.8 µM
[20]
  GI50: 1.41 µM
  TGI: 15.4 µM
[21]
  GI50: 3.41 µM
  TGI: 19.4 µM
[22]
  GI50: 3.28 µM
  TGI: 14.2 µM
[23]
  GI50: 0.324 µM
  TGI: 8.16 µM
[24]
  GI50: 3.48 µM
  TGI: 19.8 µM
[25]
  GI50: 4.17 µM
  TGI: 17.1 µM
[26]
  GI50: 4.95 µM
  TGI: 17.3 µM
[27]
  GI50: 2.03 µM
  TGI: 34.5 µM
[28]
  GI50: 5.37 µM
  TGI: 25.2 µM
[29]
  GI50: 3.42 µM
  TGI: 16.2 µM
[30]
  GI50: 1.48 µM
  TGI: 11.5 µM
[31]
  GI50: 3.95 µM
  TGI: 24.3 µM
[32]
  GI50: 1.66 µM
  TGI: 8.67 µM
[33]
  GI50: 1.89 µM
  TGI: 25 µM
[34]
  GI50: 7.78 µM
  TGI: 27.3 µM
[35]
  GI50: 2.38 µM
  TGI: 11.7 µM
[36]
  GI50: 2.33 µM
  TGI: 15.8 µM
[37]
  GI50: 2.17 µM
  TGI: 12.2 µM
[38]
  GI50: 1.62 µM
  TGI: 15.1 µM
[39]
  GI50: 4.76 µM
  TGI: 21.1 µM
[40]
  GI50: 4.2 µM
  TGI: 18.5 µM
[41]
  GI50: 10.3 µM
  TGI: 22.4 µM
[42]
  GI50: 2.7 µM
  TGI: 11.7 µM
[43]
  GI50: 7.93 µM
  TGI: 21.9 µM
[44]
  GI50: 1.26 µM
  TGI: 3.55 µM
[45]
  GI50: 1.97 µM
  TGI: 10.4 µM
[46]
  GI50: 2.73 µM
  TGI: 14.6 µM
[47]
  GI50: 7.31 µM
  TGI: 20.6 µM
[48]
  GI50: 1.77 µM
  TGI: 12.5 µM
[49]
  GI50: 1.53 µM
  TGI: 21.9 µM
[50]
  GI50: 2.68 µM
  TGI: 17.9 µM
[51]
  GI50: 2.81 µM
  TGI: 19.1 µM
[52]
  GI50: 2.93 µM
  TGI: 17 µM
[53]
  GI50: 5.04 µM
  TGI: 19.9 µM
[54]
  GI50: 3.22 µM
  TGI: 13 µM
[55]
  GI50: 2.27 µM
  TGI: 11.9 µM
